Measured values taken from US20160151335A1, “METHODS OF MODULATING CFTR ACTIVITY” (PROTEOSTASIS THERAPEUTICS, INC., priority 2013, published 2016).

Biological target: T1, ΔF508-CFTR (Homo sapiens, UniProt P13569, DEL508-508)
T1 construct: Primary lung epithelial cells (hBEs) homozygous for the Cystic Fibrosis-causing ΔF508 mutation; endogenous in cells; host or cells: primary lung (bronchial) epithelial cells (hBE) homozygous for ΔF508, differentiated at an air-liquid interface
Test: hBE equivalent current (Ieq) assay, AUC of equivalent chloride current
Type: cell-based
Conditions: compound at 10 uM, 24 h, primary hBE cells homozygous ΔF508; AUC increase relative to VX-809 at 1 uM
Description: Primary lung epithelial cells homozygous for the Cystic Fibrosis-causing ΔF508 mutation were differentiated for a minimum of 4 weeks in an air-liquid interface on Costar 24 well HTS filter plates prior to the equivalent current (Ieq) measurements. Cells were apically mucus-washed for 30 minutes 24 h prior to treatment with compounds. The basolateral media was removed and replaced with media containing the compound of interest diluted to its final concentration from DMSO stocks. Treated cells were incubated at 37° C. and 5% CO2 for 24 hours. At the end of the treatment period, the media was changed to the Ieq experimental solution for 30 minutes before the experiment and plates are maintained in a CO2-free incubator during this period. The plates containing the cells were then placed in pre-warmed heating blocks at 36° C.±0.5 for 15 minutes before measurements are taken. The transepithelial voltage (VT) and conductance (GT) were measured using a custom 24 channel current clamp (TECC-24) with 24 well electrode manifold. The Ieq assay measurements were made following additions with standardized time periods: • 1. The baseline VT and GT values were measured for approximately 20 minutes. • 2. Benzamil was added to block ENaC for 15 minutes. • 3. Forskolin plus VX-770 were added to maximally activate ΔF508-CFTR for 27 minutes. • 4. Bumetanide was added to inhibit the NaK2Cl cotransporter and shut-off secretion of chloride. The activity data captured was the area under the curve (AUC) for the traces of the equivalent chloride current. The AUC was collected from the time of the forskolin/VX-770 addition until the inhibition by bumetanide addition. Correction in response to compound treatment was scored as the increase in the AUC for compound-treated samples over that of vehicle-treated samples. (++ indicates activity ≧25% run at 10 uM of VX-809 at 1 uM, + indicates activity 10 to ≦25% run at 10 uM of VX-809 at 1 uM.

T1 sequence (P13569 with tags, fused parts or gaps DEL508-508): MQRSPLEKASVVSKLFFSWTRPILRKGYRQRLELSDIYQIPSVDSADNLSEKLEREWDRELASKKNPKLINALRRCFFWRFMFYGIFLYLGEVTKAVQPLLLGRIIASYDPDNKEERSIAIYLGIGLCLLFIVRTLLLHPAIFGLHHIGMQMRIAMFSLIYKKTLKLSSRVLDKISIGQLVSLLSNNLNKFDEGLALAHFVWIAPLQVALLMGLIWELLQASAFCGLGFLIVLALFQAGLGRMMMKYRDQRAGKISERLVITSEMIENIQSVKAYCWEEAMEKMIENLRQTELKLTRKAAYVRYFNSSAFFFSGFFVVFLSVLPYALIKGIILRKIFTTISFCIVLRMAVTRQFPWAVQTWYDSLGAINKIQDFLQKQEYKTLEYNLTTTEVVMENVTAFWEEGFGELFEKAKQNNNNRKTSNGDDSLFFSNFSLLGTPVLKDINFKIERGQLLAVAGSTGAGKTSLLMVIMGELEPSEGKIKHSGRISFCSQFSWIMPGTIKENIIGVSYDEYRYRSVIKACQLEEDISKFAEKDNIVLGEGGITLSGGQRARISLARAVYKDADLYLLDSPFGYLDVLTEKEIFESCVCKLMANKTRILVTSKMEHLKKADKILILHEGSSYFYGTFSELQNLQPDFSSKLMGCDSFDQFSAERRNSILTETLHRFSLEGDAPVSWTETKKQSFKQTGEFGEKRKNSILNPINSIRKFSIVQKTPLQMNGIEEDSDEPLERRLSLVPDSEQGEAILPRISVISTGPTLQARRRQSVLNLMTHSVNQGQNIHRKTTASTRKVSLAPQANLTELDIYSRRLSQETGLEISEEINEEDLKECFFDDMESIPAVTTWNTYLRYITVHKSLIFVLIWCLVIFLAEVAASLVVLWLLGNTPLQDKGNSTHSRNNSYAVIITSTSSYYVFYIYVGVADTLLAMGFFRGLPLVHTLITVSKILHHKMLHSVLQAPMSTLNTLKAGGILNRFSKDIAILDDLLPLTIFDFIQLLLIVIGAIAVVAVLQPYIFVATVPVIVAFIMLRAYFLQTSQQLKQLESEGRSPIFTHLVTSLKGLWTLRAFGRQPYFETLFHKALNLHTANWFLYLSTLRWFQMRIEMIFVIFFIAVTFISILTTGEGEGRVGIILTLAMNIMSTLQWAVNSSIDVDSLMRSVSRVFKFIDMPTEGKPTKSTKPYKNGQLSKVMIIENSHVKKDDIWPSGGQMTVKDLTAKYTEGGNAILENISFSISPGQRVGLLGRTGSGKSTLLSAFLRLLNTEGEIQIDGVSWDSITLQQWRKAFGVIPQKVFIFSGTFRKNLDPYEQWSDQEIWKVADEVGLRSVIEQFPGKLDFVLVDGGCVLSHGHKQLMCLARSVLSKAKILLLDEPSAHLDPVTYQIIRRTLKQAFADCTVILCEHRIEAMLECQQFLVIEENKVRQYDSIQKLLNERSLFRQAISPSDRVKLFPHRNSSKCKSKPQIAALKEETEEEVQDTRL

Which “Ieq hBE Activity” value does the source give for `Nc1nnc(CCCNC(=O)c2cc(-c3ccccc3)on2)s1` [Compound 201] here?
The value was “++ (++ indicates activity ≧25% run at 10 uM of VX-809 at 1 uM)”.

For `O=C(NCCCn1ncc2ccccc21)c1cc(-c2ccccc2)on1` [Compound 204], which “Ieq hBE Activity” value is on record?
Its value is “++ (++ indicates activity ≧25% run at 10 uM of VX-809 at 1 uM)”.

With `O=C(NCCCn1nnc2ccccc21)c1cc(-c2ccccc2)on1` [Compound 205] as the molecule, how does the “Ieq hBE Activity” value read?
Its value is “++ (++ indicates activity ≧25% run at 10 uM of VX-809 at 1 uM)”.

`O=C(NCCCc1cccnc1)c1cc(-c2ccccc2)on1` [Compound 207] was tested. Which “Ieq hBE Activity” value did it give?
The value was “++ (++ indicates activity ≧25% run at 10 uM of VX-809 at 1 uM)”.

How did the “Ieq hBE Activity” value turn out when `O=C(NCCCC(F)(F)F)c1cc(-c2cccs2)on1` [Compound 223] was run?
Its value is “++ (++ indicates activity ≧25% run at 10 uM of VX-809 at 1 uM)”.

With `COCCNC(=O)c1cc(-c2cccs2)on1` [Compound 224] as the molecule, how does the “Ieq hBE Activity” value read?
The value was “++ (++ indicates activity ≧25% run at 10 uM of VX-809 at 1 uM)”.

With `O=C(NCC1CCCO1)c1cc(-c2cccs2)on1` (stereo not drawn) [Compound 225] as the molecule, how does the “Ieq hBE Activity” value read?
Its value is “++ (++ indicates activity ≧25% run at 10 uM of VX-809 at 1 uM)”.

How did the “Ieq hBE Activity” value turn out when `O=C(NCC1CCOC1)c1cc(-c2cccs2)on1` (stereo not drawn) [Compound 226] was run?
The value was “++ (++ indicates activity ≧25% run at 10 uM of VX-809 at 1 uM)”.

How did the “Ieq hBE Activity” value turn out when `O=C(NCCn1nccn1)c1cc(-c2cccs2)on1` [Compound 228] was run?
Its value is “++ (++ indicates activity ≧25% run at 10 uM of VX-809 at 1 uM)”.

For `O=C(NCCN1CCOCC1)c1cc(-c2cccs2)on1` [Compound 229], which “Ieq hBE Activity” value is on record?
Its value is “+ (+ indicates activity 10 to ≦25% run at 10 uM of VX-809 at 1 uM)”.

Which “Ieq hBE Activity” value does the source give for `O=C(NCCC1CCOCC1)c1cc(-c2cccs2)on1` [Compound 230] here?
The value was “++ (++ indicates activity ≧25% run at 10 uM of VX-809 at 1 uM)”.

How did the “Ieq hBE Activity” value turn out when `O=C(NCCc1ccccn1)c1cc(-c2cccs2)on1` [Compound 232] was run?
The value was “++ (++ indicates activity ≧25% run at 10 uM of VX-809 at 1 uM)”.

Which “Ieq hBE Activity” value does the source give for `O=C(NCCc1cccnc1)c1cc(-c2cccs2)on1` [Compound 233] here?
The value was “+ (+ indicates activity 10 to ≦25% run at 10 uM of VX-809 at 1 uM)”.

`O=C(NCCc1ccncc1)c1cc(-c2cccs2)on1` [Compound 234] was tested. Which “Ieq hBE Activity” value did it give?
Its value is “++ (++ indicates activity ≧25% run at 10 uM of VX-809 at 1 uM)”.

How did the “Ieq hBE Activity” value turn out when `O=C(NCCCn1ccnc1)c1cc(-c2cccs2)on1` [Compound 237] was run?
The value was “++ (++ indicates activity ≧25% run at 10 uM of VX-809 at 1 uM)”.

With `O=C(NCCCCc1ccncc1)c1cc(-c2cccs2)on1` [Compound 239] as the molecule, how does the “Ieq hBE Activity” value read?
The value was “+ (+ indicates activity 10 to ≦25% run at 10 uM of VX-809 at 1 uM)”.

How did the “Ieq hBE Activity” value turn out when `CN(CC1CCCO1)C(=O)c1cc(CN2CCOCC2)on1` (stereo not drawn) [Compound 256] was run?
Its value is “+ (+ indicates activity 10 to ≦25% run at 10 uM of VX-809 at 1 uM)”.

For `Cn1nncc1CCCNC(=O)c1cc(-c2ccccc2)on1` [Compound 295], which “Ieq hBE Activity” value is on record?
The value was “+ (+ indicates activity 10 to ≦25% run at 10 uM of VX-809 at 1 uM)”.

How did the “Ieq hBE Activity” value turn out when `O=C(NCC1CCCO1)c1cc(-c2ccco2)on1` (stereo not drawn) [Compound 321] was run?
Its value is “+ (+ indicates activity 10 to ≦25% run at 10 uM of VX-809 at 1 uM)”.

For `COCCNC(=O)c1cc(-c2ccccc2)on1` [Compound 329A], which “Ieq hBE Activity” value is on record?
The value was “++ (++ indicates activity ≧25% run at 10 uM of VX-809 at 1 uM)”.

`CCNC(=O)c1cc(-c2ccccc2)on1` [Compound 336] was tested. Which “Ieq hBE Activity” value did it give?
The value was “++ (++ indicates activity ≧25% run at 10 uM of VX-809 at 1 uM)”.

How did the “Ieq hBE Activity” value turn out when `CCCCNC(=O)c1cc(-c2ccc(F)cc2)on1` [Compound 342] was run?
The value was “++ (++ indicates activity ≧25% run at 10 uM of VX-809 at 1 uM)”.

`O=C(N[C@H]1CC[C@H](O)CC1)c1cc(-c2ccccc2)on1` [Compound 343] was tested. Which “Ieq hBE Activity” value did it give?
Its value is “+ (+ indicates activity 10 to ≦25% run at 10 uM of VX-809 at 1 uM)”.

Which “Ieq hBE Activity” value does the source give for `Cc1nnsc1CNC(=O)c1cc(-c2ccccc2)on1` [Compound 344] here?
The value was “+ (+ indicates activity 10 to ≦25% run at 10 uM of VX-809 at 1 uM)”.
